Experimental data: patent US5077195A, “Polypeptides complementary to peptides or proteins having an amino acid sequence or nucleotide coding sequence at least partially known and methods of design therefor” (Board of Reagents, The University of Texas System, priority 1986, dated 1991)
Values belong to the molecule of their own block, whether it stands above or below them. Where no end group is shown, it is not given here.

How the values were obtained:
female ICR mice = assay: Induction of catatonia in mice by i.c. injection of serum; assay type: in vivo; details: simultaneous i.c. injection 0.2 mg
Text: It is well known that large doses of opiate-like substances can induce a catatonic state in animals which is inhibited or reversed by treatment with the opiate antagonist naloxone. In analogy with the results in earlier examples, the ability of a peptide (gamma-ODNE) complementary to an opiate peptide, gamma-endorphin, to induce antibodies that have opiate properties was examined.
Gamma-ODNE (Example II) was conjugated to Keyhole Limpet Hemocyanin ([…]) and used with Freund's adjuvant to generate rabbit antibodies in a conventional manner (see Example 1F). Both normal and induced rabbit sera were injected intracerebroventicularly (i.c.) into female ICR mice.

antibody to ACTH = assay: Competition in standard RIA for ACTH; assay type: binding
Procedure: Using a standard Radioimmunoassay (RIA) for ACTH (Immuno Nuclear Corporation, CAT. #2400), the ability of antibodies to a peptide (HTCA) complementary to ACTH to bind with antibodies to ACTH was determined. In a Standard RIA for ACTH, unlabelled ACTH is added in known amounts to a solution of radiolabelled ACTH and antibody to ACTH to compete away the binding of radiolabelled ACTH to its antibody. The amount of radiolabel bound is determined by immunoprecipitating the antibody and counting the radioactivity of the precipitiate.
In the experiment, unlabelled ACTH, immunoglobulin from rabbits immunized with the complementary peptide HTCA, and immunoglobulins from normal rabbits were used to compete with radiolabelled ACTH in the RIA. Immunoglobulin (35 mg/ml) solutions were prepared in phosphate buffered saline, and ACTH and ^125 I-ACTH were prepared as specified in the RIA kit.

[1] = system: mouse adrenal tumor (Y-1) cells; assay: Glucocorticoid hormone production by Y-1 cells (corticosterone RIA); assay type: cell-based; details: ACTH 10 microunits/well, 18 hrs
Procedure: An induction of glucocorticoid hormone production by ACTH and anti-HTCA was found with cultured mammalian cells. Duplicate cultures of mouse adrenal tumor (Y-1) cells in microtiter plates were treated with culture media, ACTH (10 microunits/well) or various dilutions of the anti-HTCA.
^a Duplicate cultures of mouse adrenal (Y1) cells in microtiter plate
were treated with culture media, ACTH (10 microunits/well) or the
indicated dilutions of antibody to HTCA. After 18 hrs incubation at
37° in 4% CO2, replicate cultures were pooled and assayed for
glucocorticoid hormone production by a radioimmunoassay (RIA) for […]

HTCA = assay: Solid phase radiobinding assay for ACTH in serum on HTCA-coated wells; assay type: binding; details: for Log10 Dilution at which 50% inhibition occurred: graphic interpolation
HTCA, sequence (as listed by the source): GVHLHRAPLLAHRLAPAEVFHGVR
Procedure: Complementary peptide (HTCA) was dissolved in phosphate buffered saline (PBS) at 1 mg/ml and 200 ul aliquots were placed in wells of a 96 well polyvinyl assay plate (Microtest III, Falcon Cat. #3911). HTCA was allowed to coat the wells overnight at 4° C. The coating solution was removed and the wells were washed three times with PBS. Radiolabeled ACTH (^125 I-ACTH, New England Nuclear NEX-65) was diluted into PBS containing 0.0005% TWEEN-20 so as to deliver 50 pg (or about 30,000 cpm) in a 20 ul volume.
Serum samples were prepared in a 96 well tissue culture plate by serial dilution of serum into PBS/TWEEN 20 to give a final volume of 180 ul/well. The serum samples were then transferred to the HTCA coated a ssay plate and allowed to incubate. Finally, 20 ul of ^125 I-ACTH solution was added, incubated, and the total sample of 200 ul was removed. After washing three times with PBS, the wells were cut from the plate and counted in a gamma counter.
Serum samples used in this study contained either 50 pg/ml or 500 pg/ml of ACTH added to fetal calf serum (FCS).

[2] = system: mouse adrenal tumor (Y-1) cells; assay: Binding of anti-HTCA to affixed Y-1 cells (ELISA); details: FIG. 5
Procedure: Mouse adrenal tumor (Y-1) cells were affixed by glutaraldehyde in flat bottom wells of a microtiter plate. The affixed cells were then treated with rabbit anti-KLH or rabbit anti-HTCA alone or in the presence of several levels of ACTH. After washing, the microtiter wells were treated with goat antibody to rabbit immunoglobulin the goat antibody being coupled to the enzyme alkaline phosphatase. After washing away unbound antibody-phosphatase complex, p-nitrophenyl phosphate was added and the enzyme dependent development of absorbancy at […] was monitored. […] ACTH and anti-HTCA appeared competitive for the same binding site on the mouse adrenal tumor (Y-1) cells. Rabbit anti KLH had no effect (shaded region).

[3] = target: T1, opiate receptors on NG108-15 cells (Mus musculus, UniProt P32300); assay: Binding of ^125 I-beta-endorphin to NG108-15 cells; details: read-out: % Inhibition of Specific ^125 I-beta-endorphin
T1 construct: opiate receptors on NG108-15 cells; endogenous in cells; host or cells: NG108-15 cells
T1 sequence (P32300 whole entry): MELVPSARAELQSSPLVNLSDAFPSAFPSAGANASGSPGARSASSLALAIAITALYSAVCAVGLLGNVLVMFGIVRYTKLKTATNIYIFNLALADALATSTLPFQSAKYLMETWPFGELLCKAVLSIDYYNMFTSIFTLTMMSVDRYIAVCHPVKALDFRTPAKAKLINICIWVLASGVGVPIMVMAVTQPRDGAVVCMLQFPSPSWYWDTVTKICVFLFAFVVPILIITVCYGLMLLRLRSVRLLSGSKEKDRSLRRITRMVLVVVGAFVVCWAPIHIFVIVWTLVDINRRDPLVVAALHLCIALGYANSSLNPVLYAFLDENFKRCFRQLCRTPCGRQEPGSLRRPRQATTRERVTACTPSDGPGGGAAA
Procedure: Seventy percent of the total binding was specific by conventional criteria.
For this experiment, ^125 I-beta-endorphin was preincubated 30 minutes with various amounts of the complementary peptide, gamma-ODNE, before a 30 minute (37° C.) incubation with NG108-15 cells in microtiter wells. After the incubation, cells were washed 3 times and cell associated radioactivity wad determined with a Packard Multi-Prias gamma counter.

bovine gamma-endorphin = target: T2, bovine gamma-endorphin (Bos taurus, UniProt P01190); assay: ELISA binding of gamma-endorphin to coated wells; details: gamma-odne 40 ug/well; compared with insulin or BSA coating
T2 construct: purchased Boehringer Mannheim (Indianapolis, IN); host or cells: chemical synthesis
Procedure: The wells of a 96-well round-bottomed microtiter plate were coated (by the procedure described in Example 1B) with gamma-odne (40 ug/well), insulin (20U/well) or bovine serum albumin (BSA, 200 ug/well). Varying concentrations of gamma-endorphin (as shown on the abscissa in FIG. 7) were incubated in the coated wells for 1 hr, after which the plates were thrice washed with PBS-Tween buffer. The wells were then treated with rabbit antibody for gamma-endorphin, washed, and then treated with goat antibody against rabbit immunoglobulin the goat antibody being conjugated to alkaline phosphatase. After washing away unbound goat antibody conjugate, the bound alkaline phosphatase activity was measured with p-nitrophenylphosphate as earlier described. The results of the above manipulations are shown in FIG. 7 where the extent of absorbance at 405 nm reflects the degree of gamma-endorphin binding to wells coated with gamma-odne, insulin or BSA. […] The shaded area in FIG. 7 represents the extent of gamma-endorphin binding in the presence of soluble excess of gamma-odne. Thus it is shown that a second pair of complementary peptides interacts in a manner showing affinity and apparent congruence.

Molecule: C=CCN1CC[C@]23c4c5ccc(O)c4O[C@H]2C(=O)CC[C@@]3(O)[C@H]1C5 [naloxone]
reversal of serum-induced catatonia (in words) (female ICR mice): reversed

Percent Specific Binding (antibody to ACTH; competitor 20 pg/ml): 90% | Percent Specific Binding (antibody to ACTH; competitor 50 pg/ml): 77.5% | Percent Specific Binding (antibody to ACTH; competitor 100 pg/ml): 62.2% | Percent Specific Binding (antibody to ACTH; competitor 200 pg/ml): 42% | Percent Specific Binding (antibody to ACTH; competitor 500 pg/ml): 21.6% | % Inhibition of Specific Binding (HTCA; 50 pg/ml ACTH in FCS, Log10 Dilution 0): 91% | Log10 Dilution at which 50% inhibition occurred (HTCA; 50 pg/ml serum sample): -1.1 | % Inhibition of Specific Binding (HTCA; 50 pg/ml, Log10 Dilution -0.5): 73% | % Inhibition of Specific Binding (HTCA; 50 pg/ml, Log10 Dilution -1.0): 40% | % Inhibition of Specific Binding (HTCA; 50 pg/ml, Log10 Dilution -1.5): 44% | % Inhibition of Specific Binding (HTCA; 50 pg/ml, Log10 Dilution -2.0): 9% | % Inhibition of Specific Binding (HTCA; 50 pg/ml, Log10 Dilution -2.5): 1% | % Inhibition of Specific Binding (HTCA; 50 pg/ml, Log10 Dilution -3.0): 0% | % Inhibition of Specific Binding (HTCA; 50 pg/ml, Log10 Dilution -3.5): 0% | % Inhibition of Specific Binding (HTCA; 500 pg/ml ACTH in FCS, Log10 Dilution 0): 85% | Log10 Dilution at which 50% inhibition occurred (HTCA; 500 pg/ml serum sample): -2.0 | % Inhibition of Specific Binding (HTCA; 500 pg/ml, Log10 Dilution -0.5): 90% | % Inhibition of Specific Binding (HTCA; 500 pg/ml, Log10 Dilution -1.0): 77% | % Inhibition of Specific Binding (HTCA; 500 pg/ml, Log10 Dilution -1.5): 57% | % Inhibition of Specific Binding (HTCA; 500 pg/ml, Log10 Dilution -2.0): 53% | % Inhibition of Specific Binding (HTCA; 500 pg/ml, Log10 Dilution -2.5): 35% | % Inhibition of Specific Binding (HTCA; 500 pg/ml, Log10 Dilution -3.0): 32% | % Inhibition of Specific Binding (HTCA; 500 pg/ml, Log10 Dilution -3.5): 20%
Molecule: ACTH: Synthetic ACTH, fragment 1-24, obtained from Organon; unlabelled ACTH of RIA kit in later examples
Corticosterone equivalents ([1]; Experiment 1): 1.08 µg/mL | Corticosterone equivalents ([1]; Experiment 2): 1.42 µg/mL | effect on binding to Y-1 cells, absorbancy at 405 nM (in words) [2]: blocked binding of the anti-HTCA in a dose dependent manner

Molecule: QRDKGRLALLGGHEPAV [gamma-odne, H2 N--gln--arg--asp--lys--gly--arg--leu--ala--leu--leu--gly--gly--his--glu--pro--ala--val--COOH]
inhibition at 100 µM ([3]; 10^-4 M): 75 ± 0.6% | inhibition at 10 µM ([3]; 10^-5 M): 36 ± 2.1% | inhibition at 1 µM ([3]; 10^-6 M, 30 min preincubation with 10^-11 M label): 24.7 ± 3.9% | gamma-endorphin binding to coated wells, absorbance at 405 nM (in words) (bovine gamma-endorphin): significantly bound
